According to PubChem BioAssay AID1996:
In brackets after ≈: the same amount, converted by molar mass.

Details: buffer; pH 7.4; 200.0 µM

Row | solubility kinetic | Structure (SMILES)
1 | < 0.3 µg/mL | O=c1c2ccccc2[nH]c(=S)n1Cc1ccccc1
2 | < 0.6 µg/mL | Cc1ccc(C(=O)NC(C)C2CC3CCC2C3)cc1 (centres undefined)
3 | > 41.7 µg/mL | O=C(CNC(=O)c1cccs1)NCCc1ccco1
4 | 43.4 µg/mL (≈ 141 µM) | C=CCOC(=O)/C(=C/c1cccnc1)NC(=O)c1ccccc1
5 | 41.3 µg/mL (≈ 125 µM) | CCC(CC)NC(=O)Cn1c(C(C)NC(C)=O)nc2ccccc21 (centres undefined)
6 | 29.6 µg/mL (≈ 108 µM) | O=C(c1cc(Br)c[nH]1)N1CCSCC1
7 | 2.7 µg/mL (≈ 9.67 µM) | O=C1CC(c2ccccc2)Cc2nc(NC3CC3)ncc21 (centres undefined)
8 | > 31.8 µg/mL | COC(=O)CSc1nc(C)cc(C)n1
9 | 1.1 µg/mL (≈ 3.58 µM) | CC(C)(C)N(Cc1ccccc1)C(=O)c1cc2ccccc2o1
10 | 21.7 µg/mL (≈ 81.7 µM) | O=C(OCc1ccc(F)cc1)c1cccnc1Cl
11 | 54.9 µg/mL (≈ 137 µM) | COc1cc(/C=C/C(=O)OCC(=O)NC(C)c2ccccc2)cc(OC)c1OC (centres undefined)
12 | > 45.1 µg/mL | O=S(=O)(c1ccc2oc(=S)[nH]c2c1)N1CCOCC1
13 | 30.9 µg/mL (≈ 107 µM) | CCOc1ccc(NCCC(O)c2ccc(F)cc2)cc1 (centres undefined)
14 | 7.2 µg/mL (≈ 25.5 µM) | N/C(=N\OC(=O)CCCc1ccccc1)c1ccccc1
15 | > 49.1 µg/mL | CCN1CCCC1CNc1ccc(S(C)(=O)=O)cc1[N+](=O)[O-] (centres undefined)
16 | 3.1 µg/mL (≈ 9.03 µM) | COC(=O)c1ccc(NC(=O)c2ccc(OC(C)=O)c(OC)c2)cc1
17 | > 39.9 µg/mL | Cc1ccc(C)c(S(=O)(=O)Nc2cc(C)on2)c1
18 | > 45.2 µg/mL | COc1cccc(C(=O)NOCc2ccc(C)cc2)c1OC
19 | > 43.1 µg/mL | S=C(NCc1cccnc1)Nc1ccc2c(c1)OCO2
20 | > 50.8 µg/mL | O=C(NCc1cnn(-c2ccccc2)c1)C1CCC(=O)N(C2CC2)C1 (centres undefined)
21 | > 47.6 µg/mL | CC1(C)Cc2cccc(OCC(=O)NCc3cccs3)c2O1
22 | > 56.9 µg/mL | CCNC(=O)c1cccc(NC(=O)C2CC(=O)N(CCc3ccccc3)C2)c1 (centres undefined)
23 | > 52.7 µg/mL | CCOc1ccc(N(C(=O)C2CCCO2)C2C=CS(=O)(=O)C2)cc1 (centres undefined)

Row | solubility kinetic | Structure (SMILES)
24 | 11.2 µg/mL (≈ 37.4 µM) | Cc1ccc(C)c(OCC(=O)O/N=C(\N)c2cccnc2)c1
25 | < 0.4 µg/mL | CCC(=O)c1ccc(OCC(=O)Nc2ccccc2N2CCCCC2)cc1
26 | > 35.4 µg/mL | OCC(O)CN1CCN(c2ccccc2)CC1 (centres undefined)
27 | 1.8 µg/mL (≈ 5.32 µM) | CC(C)COc1ccc(C(=O)N2C(=O)c3ccc(N)cc3C2=O)cc1
28 | 41.7 µg/mL (≈ 144 µM) | O=C1CC(Sc2cccs2)C(=O)N1c1ccccc1 (centres undefined)
29 | 4 µg/mL (≈ 11.6 µM) | CCCNc1nc2c(c(=O)[nH]c(=O)n2C)n1CCOc1ccccc1
30 | > 47.7 µg/mL | CO/N=C/C(NC(=O)c1ccc(C(F)(F)F)cc1)C(=O)OC (centres undefined)
31 | > 44.6 µg/mL | O=C(NCc1cccnc1)c1ccc(Br)s1
32 | 38.4 µg/mL (≈ 147 µM) | CN(C(=O)c1ccc2c(c1)OCO2)C1CCCCC1
33 | > 51.3 µg/mL | O=C(COC(=O)c1cccc(Br)c1)NCC1CCCO1 (centres undefined)
34 | > 42.1 µg/mL | CSCCC1NC(=S)N(Cc2ccccc2)C1=O (centres undefined)
35 | > 51.4 µg/mL | CCOc1cc(Cl)c(CNCCCN2CCOCC2)cc1OC
36 | 36.1 µg/mL (≈ 140 µM) | O=C(NC(=S)Nc1cccnc1)c1ccccc1
37 | 22.3 µg/mL (≈ 63.1 µM) | CN(Cc1ccccc1)C(=O)COC(=O)/C=C/c1ccc2c(c1)OCO2
38 | < 0.2 µg/mL | O=C1N/C(=N\c2ccccn2)SC1Cc1ccccc1Cl (centres undefined)
39 | 11.1 µg/mL (≈ 32.7 µM) | Cc1cccc(NC(=O)NC2CC3CCC(C2)N3Cc2ccco2)c1 (centres undefined)
40 | 19.2 µg/mL (≈ 58.8 µM) | Cc1cc(C)c(S(=O)(=O)Nc2cnc3ccccc3c2)c(C)c1
41 | > 43.9 µg/mL | CC(=O)N1CCN(C(=O)c2cc3c(s2)CCCC3)CC1
42 | > 53 µg/mL | Cc1ccc(NC(=S)NCC2CCN(C(C)c3ccccc3)C2)cc1 (centres undefined)
43 | 34.6 µg/mL (≈ 126 µM) | Cc1ccc(NC(=O)CCC(=O)c2cccs2)nc1
44 | 49.1 µg/mL (≈ 144 µM) | O=C(O)CNC(=S)N(Cc1ccccc1Cl)C1CCCCC1
45 | 38.3 µg/mL (≈ 108 µM) | COc1ccccc1CNC(=O)COC(=O)Cn1cnc2ccccc21
46 | > 41.4 µg/mL | O=C(OCc1nc2ccsc2c(=O)[nH]1)c1ccco1

Row | solubility kinetic | Structure (SMILES)
47 | 49.2 µg/mL (≈ 138 µM) | O=C(CN1C(=O)COc2ccccc21)N1CCN(C2CCCCC2)CC1
48 | 13.4 µg/mL (≈ 42.5 µM) | Cc1ccc(C(C)c2c(C)c([N+](=O)[O-])cc(C)c2[N+](=O)[O-])cn1 (centres undefined)
49 | 21.9 µg/mL (≈ 67.9 µM) | CCN(CC)c1ccc(CNc2ccc3c(c2)ncn3CC)cc1
50 | 37.6 µg/mL (≈ 120 µM) | COc1ccccc1N1CCN(CC(O)c2ccccc2)CC1 (centres undefined)
51 | 1.3 µg/mL (≈ 4.46 µM) | c1cnc(N2CCN(c3ccc4ccccc4n3)CC2)nc1
52 | 41.6 µg/mL (≈ 83.7 µM) | Cc1cc(C)cc(OCC(=O)OCC(=O)Nc2cc(S(=O)(=O)N3CCOCC3)ccc2Cl)c1
53 | > 56.9 µg/mL | O=C(NCc1ccco1)C(=O)c1cn(CC(=O)N2CCCC2)c2ccccc12
54 | > 44.2 µg/mL | COc1ccc(C)cc1NC(=S)NN1CCN(C)CC1
55 | > 46 µg/mL | O=C(CCC(=O)N1CCCCCC1)NCc1ccc(F)cc1
56 | 45.9 µg/mL (≈ 144 µM) | COc1ccc2[nH]c(C)c(C(=O)CN(C)CC3OCCO3)c2c1
57 | 3 µg/mL (≈ 9.52 µM) | Clc1cccc(Cl)c1C1Nc2cccc3cccc(c23)N1
58 | > 49.4 µg/mL | O=C(COC(=O)CCSc1ccccc1)NCc1ccccc1
59 | 1 µg/mL (≈ 3.15 µM) | CN(CC(=O)Nc1ccc(F)cc1[N+](=O)[O-])Cc1ccccc1
60 | < 0.3 µg/mL | CCOc1ccccc1NC(=O)Nc1ccc2c(c1)CCC2
61 | 2.4 µg/mL (≈ 6.19 µM) | Cc1c(NS(=O)(=O)c2cccs2)cccc1-c1nc2cccnc2s1
62 | > 37.5 µg/mL | Cc1ccnc(SCC(=O)c2cccs2)n1
63 | > 46.3 µg/mL | Cc1nc2ccccc2c2oc(C(=O)N3CCC(C)CC3)cc12
64 | 28.3 µg/mL (≈ 101 µM) | O=C(NCc1ccco1)c1cc([N+](=O)[O-])ccc1Cl
65 | 13.2 µg/mL (≈ 36.3 µM) | COc1ccc(NS(=O)(=O)c2cc(N)ccc2N2CCOCC2)cc1
66 | > 57.5 µg/mL | CC(C)(CNS(=O)(=O)c1ccc(Br)s1)N1CCOCC1
67 | 38.6 µg/mL (≈ 115 µM) | Cc1ccc(Cl)cc1NC(=O)CC1NC2CCCCC2NC1=O (centres undefined)
68 | 21.4 µg/mL (≈ 89.8 µM) | c1ccc(-c2nc(-c3cccnc3)cs2)cc1

The next lines start with the compound.

Row | Structure (SMILES) | solubility kinetic
69 | O=C(NCC1CCCO1)c1cc(-c2ccc(F)cc2)no1 (centres undefined) | > 43.5 µg/mL
70 | Cc1cccc(NC(=O)c2ccc(S(=O)(=O)N(C)c3ccccc3)cc2)n1 | 11.6 µg/mL (≈ 30.4 µM)
71 | COc1ccc2[nH]c(=O)c(CNc3cc(C)ccc3C)cc2c1 | 1.8 µg/mL (≈ 5.84 µM)
72 | COc1ccc(S(=O)(=O)NCc2ccccn2)cc1Br | > 53.6 µg/mL
73 | O=C(CSCc1ccc(F)cc1)NCc1cccs1 | 40.2 µg/mL (≈ 136 µM)
74 | O=C(COC(=O)[C@@H]1CC(O)CN1S(=O)(=O)c1ccc2c(c1)OCCO2)Nc1cc(F)ccc1F (some centres undefined) | > 74.8 µg/mL
75 | Cc1c(O)c(CN(C)C)cc2c1oc(=O)c1ccccc12 | > 42.5 µg/mL
76 | CCOc1ccc(C(=O)n2cc(C(=O)OC)c3ccccc32)cc1OCC | 3.9 µg/mL (≈ 10.6 µM)
77 | O=C(NCc1ccc2c(c1)OCO2)c1ccc(Br)s1 | 1.9 µg/mL (≈ 5.58 µM)
78 | CC(=O)Nc1ccc(NC(=O)C(C)OC(=O)C23CC4CC(CC(Cl)(C4)C2)C3)cc1 (centres undefined) | 61.5 µg/mL (≈ 147 µM)
79 | O=C(O)c1c2c(nc3ccc(Cl)cc13)CCC2 | 32.1 µg/mL (≈ 130 µM)
80 | Cc1ccc(C(=O)Nc2ccc(C(F)(F)F)n(C)c2=O)cc1 | 2.1 µg/mL (≈ 6.77 µM)
81 | CC(NC(=O)CSc1ccccc1C(=O)O)C1CC2CCC1C2 (centres undefined) | > 50 µg/mL
82 | Cc1cc(Cl)cc(C)c1OCCNCc1ccccc1.O=C(O)C(=O)O | 44.5 µg/mL
83 | CC1CCC(NS(=O)(=O)c2ccc3c(c2)CC(=O)N3)CC1 (centres undefined) | 27.3 µg/mL (≈ 88.5 µM)
84 | COc1ccccc1OCCC(=O)OCC(=O)Nc1ccc2c(c1)OCCO2 | 55.8 µg/mL (≈ 144 µM)
85 | COc1ccccc1-n1ccnc1SCC(=O)NC1CCCC1 | 45.3 µg/mL (≈ 137 µM)
86 | COC(=O)c1ccc(S(=O)(=O)N(CCO)Cc2ccccc2)n1C | 47.6 µg/mL (≈ 135 µM)
87 | CC1CC(C)CN(C(=O)COC(=O)c2ccc(N3CCCC3=O)cc2)C1 (centres undefined) | > 53.8 µg/mL
88 | C=CCn1c(C(O)c2ccccc2)nc2ccccc21 (centres undefined) | 24.2 µg/mL (≈ 91.6 µM)
89 | CC(=O)N1C[C@H](O)C[C@H]1C(=O)O | > 26 µg/mL
90 | CC1Cc2ccccc2N1C(=O)Cn1cnc2ccccc21 (centres undefined) | 42.3 µg/mL (≈ 145 µM)
91 | O=C(Cn1cc(C(F)(F)F)cc(Cl)c1=O)NCc1ccccc1 | 7.8 µg/mL (≈ 22.6 µM)
92 | Cc1c(C(=O)Nc2ccccn2)sc2nc3n(c(=O)c12)CCC3 | 32.9 µg/mL (≈ 101 µM)
93 | Cc1ccc(S(=O)(=O)N2CCC(C(=O)N3CCC3)CC2)cc1 | 47.4 µg/mL (≈ 147 µM)
94 | CC1CCN(CCCNc2cc(NCCO)c([N+](=O)[O-])c3nonc23)CC1 | > 56.8 µg/mL

Row | Structure (SMILES) | solubility kinetic
95 | O=C(O)c1ccc(NC(=O)c2ccccc2NC(=O)c2cccc(F)c2)cc1 | > 56.8 µg/mL
96 | Clc1nc(-c2ccccc2)ncc1Oc1ccccc1 | < 0.3 µg/mL
97 | CN1CCN(c2c(F)cc3c(=O)c(C(=O)[O-])cn4c3c2OCN4C)CC1 | > 54.2 µg/mL
98 | O=C(NCc1ccc(F)cc1)c1cccnc1 | > 34.5 µg/mL
99 | C=CCn1c(SCC(=O)N2CCOCC2)nc2sc(CC)cc2c1=O | > 56.9 µg/mL
100 | C/C(=N\OC(=O)Nc1ccccc1)c1ccc(C)cc1 | 15 µg/mL (≈ 55.9 µM)
101 | Cc1cc(C)cc(OCC(=O)Nc2ccc(CN3CCCCC3)cc2)c1 | 49.9 µg/mL (≈ 142 µM)
102 | O=C(Oc1ccc(C(=S)N2CCOCC2)cc1Cl)c1ccccc1F | 9.9 µg/mL (≈ 26.1 µM)
103 | CC1(C)C2([N+](=O)[O-])CN3CC1([N+](=O)[O-])CN(C2)C3c1ccccn1 (centres undefined) | 7.9 µg/mL (≈ 23.7 µM)
104 | COc1ccccc1CC(=O)Nc1ccon1 | > 34.8 µg/mL
105 | O=C(O)CCNS(=O)(=O)c1ccc2c(c1)CCCC2 | > 42.5 µg/mL
106 | CSc1ncccc1C(=O)Nc1ccc2c(c1)OCO2 | 30.8 µg/mL (≈ 107 µM)
107 | Cc1ncc([N+](=O)[O-])n1Cc1ccc(Cl)cc1 | 34.7 µg/mL (≈ 138 µM)
108 | N#Cc1ccccc1NC(=O)CN1CCN(c2ccccn2)CC1 | > 48.2 µg/mL
109 | O=C(c1cc2cc(Cl)ccc2[nH]1)N1CCCCC1 | 2 µg/mL (≈ 7.61 µM)
110 | N#Cc1cccc(C(=O)Nc2cc(S(=O)(=O)N3CCOCC3)ccc2N2CCCC2)c1 | > 66.1 µg/mL
111 | Cl.O=C(NCCN1CCOCC1)c1ccc(S(=O)(=O)Nc2ccccc2)cc1 | > 63.9 µg/mL
112 | COc1ccc(NC(=O)c2cccc3ccccc23)cc1 | 1.4 µg/mL (≈ 5.05 µM)
113 | O=C(Nc1ccccc1)OCCOc1ccccc1Br | < 0.7 µg/mL
114 | C=CCn1c(N2CCOCC2)nc2c1c(=O)[nH]c(=O)n2C | > 43.7 µg/mL
115 | Cc1ccc(C(C)C)c(OCCOCCN2CCNCC2)c1.O=C(O)C(=O)O | 52.1 µg/mL
116 | Cc1ccc(S(=O)(=O)N2CCCCC2C(=O)Nc2ccc(N(C)C)cc2)cc1 (centres undefined) | 5.7 µg/mL (≈ 14.2 µM)
117 | O=C(Nc1cccc(Cl)c1)N1CCCCCC1 | 5.1 µg/mL (≈ 20.2 µM)
118 | COC(=O)c1ccc(S(=O)(=O)N2CCC(O)CC2)n1C | > 45.4 µg/mL
119 | O=C(Nc1cccc(O)c1)c1ccccc1[N+](=O)[O-] | 36.3 µg/mL (≈ 141 µM)
